Source: PMC12257535, “Distinct Interactions of Cannabinol and Its Cytochrome P450-Generated Metabolites with Receptors and Sensory Neurons” (Journal of Medicinal Chemistry, 2025)

Assays:
CYP3A4 = CYP3A4 (Homo sapiens, UniProt P08684, S18F); test: NADPH oxidation assay with CYP3A4 nanodisc and CPR; settings: triplicate
CB2 receptor = CB2 receptor (Homo sapiens, UniProt P34972); test: G protein nanoBRET assay, antagonist mode, CB2 receptor; settings: 50 μM after pretreatment with 1 μM CP-55940
IL-10 = IL-10 ELISA in LPS-stimulated BV2 microglial cells; format: cell-based; settings: LPS-stimulated BV2, 1–5 μM
Protocol: (§1) The BV2 microglial cells were subjected to the treatment of LPS both in the absence and presence of CBN and its selected metabolites. The seeding density for this assay was 1 × 10^5 cells/well. The cells were initially treated with the molecules for 4 h before being stimulated with LPS (25 ng/mL). The NO assay was performed 24 h after the treatment with LPS. The NO assay was performed according to the manufacturer’s protocol, and NO levels were quantified using nitrate standard curves. For the assay, 50 μL of cell media was used in a 96-well plate, and the absorbance was recorded at 540 nm. All measurements were performed in n = 5.
(§2) ELISA assays of IL-6, IL-10 (Item No. 88–7105), and Arginase 1 were performed using the same supernatant with which we had completed the NO and LDH assays. The culture media was collected, and the IL-6 (Thermo Scientific) and Arginase 1 (abcam) assays were performed using the specific monoclonal antibodies as per the manufacturer’s instructions.

human liver microsomes = test: CBN metabolism by human liver microsomes, metabolite formation rate; format: in vitro ADME; settings: HLM, across different CBN concentrations
Protocol: We carried out concentration-dependent metabolism of CBN in the presence of 2 CYPs: 2C9 and 2D6. For the experiment, we used an enzyme concentration of 0.5 μM, reconstituted in the lipid system of POPC: POPS (8:2 v/v), and CPR at 0.6 μM dissolved in 0.1 M potassium phosphate buffer for CYP2C9. The substrate CBN was used in a range of 5–80 μM. The reaction mixture was incubated at 37 °C for 10 min, and then NADPH was added (1 mM), allowing the reaction to proceed for an additional 30 min. We quenched the reactions using a mixture of Hexane: Ethyl Acetate (8:2 v/v) and used the same composition to extract the CBN metabolites. We did a total extraction for three cycles. Following the extractions, the extractions were dried under a continuous stream of nitrogen, and the residual products were finally dissolved in 90% ethanol. We used CYP2D6 in a nanodisc for the metabolism of CBN. […] We carried out the same protocol for the metabolism of CBN using 1 μg of human liver microsome, CPR (0.6 μM) and NADPH (1 mM).
Samples were analyzed with the Sciex QTrap 6500+ system (Framingham, MA) with Waters Acquity I-class plus UPLC. Software Analyst 1.7.1 was used for data acquisition.
The LC separation was performed on a Waters Acquity UPLC BEH column (2.1 × 100 mm, […]) with mobile phase A (0.1% formic acid in water) and mobile phase B (0.1% formic acid in acetonitrile). The flow rate was 0.5 mL/min unless noted otherwise. […]
(§3) Mass spectra were acquired under positive electrospray ionization (ESI) with the ion spray voltage of 4500 V. The source temperature was 500 °C. […] Multiple reaction monitoring (MRM) was used for quantitation, as described in transitions CBN (m/z 311.2 → m/z 205.1), CBN-1′–OH (m/z 327.2 → m/z 253.1), CBN-11-OH (m/z 327.2 → m/z 291.1), CBN-p-quinone (m/z 325.2 → m/z 283.1) and CBC-d9 as internal standard (m/z 324.2→ m/z 202.1).
(§4) All data were analyzed using the software Skyline (daily version 22.2.1.278). […]

NO = NO levels in LPS-stimulated BV2 microglial cells; format: cell-based; settings: for change in NO levels compared to cells with only LPS treatment: LPS-stimulated BV2, 1, 2.5 and 5 μM
Protocol: as §1

DRG neurons = test: Calcium responses of cultured DRG sensory neurons; format: cell-based; settings: cultured mouse DRG neurons, 50 μM × 15 s
Protocol: 9 CBN and 11-OH CBN activate DRG neurons with similar response magnitudes but differ in their percentage of neurons activated and time to peak response. Calcium response traces of representative cultured mouse DRG neurons following application of CBN (A) and 11-OH CBN (B) 50 μM × 15 s (arrow). […] Mean value ± SEM (CBN: n = 59; 11-OH CBN: n = 29, two-tailed t test, Prism GraphPad).

IL-6 = IL-6 ELISA in LPS-stimulated BV2 microglial cells; format: cell-based
Protocol: as §1, §2

CB1 receptor [1] = biological target: T1, CB1 receptor (Homo sapiens, UniProt P21554); test: G protein nanoBRET assay, antagonist mode, CB1 receptor; settings: 50 μM after pretreatment with 1 μM CP-55940
Arginase 1 = Arginase 1 ELISA in LPS-stimulated BV2 microglial cells; format: cell-based
Protocol: as §1, §2

[2] = In vivo metabolism of CBN in female mice, plasma levels by targeted LC/MS/MS; set-up: species or system C57BL/6 mice; settings: for CBN-11-OH formation relative to CBN-1′-OH / CBN-11-OH formation relative to CBN-quinone: 0.5 h, plasma
Protocol: Initially dissolved in ethanol, CBN was combined with a volume of Tween 80, constituting 6% of the total solution volume for injection. Ethanol was eliminated via vacuum evaporation, and saline was added to prepare a 4 mg/mL solution. CBN (20 mg/kg) or vehicle was administered to C57BL/6 mice intravenously (IV) through the retro-orbital sinus or intraperitoneally (IP) at the lower right quadrant of the abdomen. Animals were euthanized at 30- or 120 min postinjection. Blood samples, collected via cardiac puncture into heparin tubes, underwent cold centrifugation at 4500 rpm for 15 min to isolate plasma. Plasma and whole liver samples were flash-frozen at −80 °C for subsequent analysis. Our decision to use female mice for this experiment was based on the availability of age-matched mice in the colony at the time of the experiment.
Mice were anaesthetized with a 3% inhalant dose of isoflurane until their respiratory rate decreased to 50% of baseline (i.e., 40–60 breaths/min) and the righting reflex was abolished. Mice were subsequently removed from the induction chamber and laid on their side. Using the index finger and thumb of the nondominant hand, the skin above and below the eye was retracted until a slight protrusion from the socket was noted. A 29G1/2 needle was inserted, bevel down, into the medial canthus at an approximate 45-degree angle until slight resistance was noted. Volume was slowly infused at a rate of 15uL/second. The needle was subsequently removed from the eye socket, and ophthalmic ointment was added.
Animals were gently restrained by scruff, and the injection site at the lower right quadrant of the abdomen was identified. The needle was inserted at a 60-degree angle to the body, and the plunger was lightly withdrawn to ensure the needle was not in contact with viscera or organs before dispensing volume.
200 μL plasma samples were collected and used for extraction using 1 mL of Hexane: Ethyl acetate (8:2 v/v) following a similar protocol described above.
Samples were analyzed using the Sciex QTrap 6500+ system (Framingham, MA) with Waters Acquity I- class plus UPLC. Software Analyst 1.7.1 was used for data acquisition.
The LC separation was performed on a Waters Acquity UPLC BEH column (2.1 × 100 mm, 1.7 μm) with mobile phase A (0.1% formic acid in water) and mobile phase B (0.1% formic acid in acetonitrile). The flow rate was 0.5 mL/min unless noted otherwise. The linear gradient was as follows: 0–0.5 min, 70%A; 2 min, 20%A; 4–4.2 min, 0%A; 4.21–5.2 min, 0%A (0.8 mL/min); 5.3–6.9 min, 70%A. The autosampler was set at 10 °C, and the column was kept at 50 °C. The injection volume was 5 μL.
Mass spectra were acquired under positive electrospray ionization (ESI) with the ion spray voltage of 4500 V. The source temperature was 500 °C. The curtain gas, ion source gas 1, and ion source gas 2 were 32, 50, and 70 psi, respectively. Multiple reaction monitoring (MRM) was used for quantitation with the MRM transition of CBN (m/z 311.2 → m/z 269.1), CBN-1′–OH (m/z 327.2 → m/z 253.1), CBN-11-OH (m/z 327.2 → m/z 128.1), CBN-p-quinone (m/z 325.2 → m/z 283.1) and EPEA-d4 as internal standard (m/z 350.3 → m/z 66.1).

CYP2D6 = biological target: T2, CYP2D6 (Homo sapiens, UniProt P10635); test: CYP2D6 (nanodisc)-mediated CBN metabolism, kinetics of metabolite formation; format: in vitro ADME
T2 construct: polyhistidine (inferred from Ni-NTA purification and histidine elution); made in house; host or cells: E. coli (inferred from the pCWori vector and lysozyme/spheroplast preparation)
Protocol: We carried out concentration-dependent metabolism of CBN in the presence of 2 CYPs: 2C9 and 2D6. For the experiment, we used an enzyme concentration of 0.5 μM, reconstituted in the lipid system of POPC: POPS (8:2 v/v), and CPR at 0.6 μM dissolved in 0.1 M potassium phosphate buffer for CYP2C9. The substrate CBN was used in a range of 5–80 μM. The reaction mixture was incubated at 37 °C for 10 min, and then NADPH was added (1 mM), allowing the reaction to proceed for an additional 30 min. We quenched the reactions using a mixture of Hexane: Ethyl Acetate (8:2 v/v) and used the same composition to extract the CBN metabolites. We did a total extraction for three cycles. […]
Samples were analyzed with the Sciex QTrap 6500+ system (Framingham, MA) with Waters Acquity I-class plus UPLC. […]
as §3, §4

CB1 receptor [3] = biological target: T1, CB1 receptor; test: G protein nanoBRET assay, agonist mode, CB1 receptor; settings: 10 μM, ΔBRET; confirmed by concentration–response, only at high concentrations
not read [4] = substrate: CCCCCC1=CC(=O)C2=C(OC(C)(C)c3ccc(C)cc32)C1=O; test: not read; settings: other: CYP2C9, CBN 5–80 μM
Protocol: (§5) For the experiment, we used an enzyme concentration of 0.5 μM, reconstituted in the lipid system of POPC: POPS (8:2 v/v), and CPR at 0.6 μM dissolved in 0.1 M potassium phosphate buffer for CYP2C9. […] The reaction mixture was incubated at 37 °C for 10 min, and then NADPH was added (1 mM), allowing the reaction to proceed for an additional 30 min. […] We did a total extraction for three cycles. Following the extractions, the extractions were dried under a continuous stream of nitrogen, and the residual products were finally dissolved in 90% ethanol.
(§6) The LC separation was performed on a Waters Acquity UPLC BEH column (2.1 × 100 mm, 1.7 μM) with mobile phase A (0.1% formic acid in water) and mobile phase B (0.1% formic acid in acetonitrile). The flow rate was 0.5 mL/min unless noted otherwise. The linear gradient was as follows: 0–0.5 min, 70%A; 2 min, 20%A; 4–4.2 min, 0%A; 4.21–5.2 min, 0%A (0.8 mL/min); 5.3–6.9 min, 70%A. The autosampler was set at 10 °C, and the column was kept at 50 °C. The injection volume was 5 μL.
(§7) All data were analyzed using the software Skyline (daily version 22.2.1.278). It includes raw data import, peak integration, and a linear regression fit with 1/×2 weighting for the calibration curves.

not read [5] = substrate: CCCC[C@H](O)c1cc(O)c2c(c1)OC(C)(C)c1ccc(C)cc1-2; test: not read; settings: other: CYP2C9, CBN 5–80 μM
Protocol: as §5, §6, §7

Sequence of CB2 receptor (P34972 whole entry): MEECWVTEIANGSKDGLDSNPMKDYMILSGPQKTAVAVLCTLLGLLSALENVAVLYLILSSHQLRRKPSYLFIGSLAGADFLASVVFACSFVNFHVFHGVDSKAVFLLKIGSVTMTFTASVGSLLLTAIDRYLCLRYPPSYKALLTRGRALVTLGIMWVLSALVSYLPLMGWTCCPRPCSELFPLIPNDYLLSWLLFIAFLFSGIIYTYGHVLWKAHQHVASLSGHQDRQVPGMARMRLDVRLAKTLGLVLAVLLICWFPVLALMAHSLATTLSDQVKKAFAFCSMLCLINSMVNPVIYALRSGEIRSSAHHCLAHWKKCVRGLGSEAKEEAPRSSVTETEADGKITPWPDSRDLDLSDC
T1 sequence (P21554 whole entry): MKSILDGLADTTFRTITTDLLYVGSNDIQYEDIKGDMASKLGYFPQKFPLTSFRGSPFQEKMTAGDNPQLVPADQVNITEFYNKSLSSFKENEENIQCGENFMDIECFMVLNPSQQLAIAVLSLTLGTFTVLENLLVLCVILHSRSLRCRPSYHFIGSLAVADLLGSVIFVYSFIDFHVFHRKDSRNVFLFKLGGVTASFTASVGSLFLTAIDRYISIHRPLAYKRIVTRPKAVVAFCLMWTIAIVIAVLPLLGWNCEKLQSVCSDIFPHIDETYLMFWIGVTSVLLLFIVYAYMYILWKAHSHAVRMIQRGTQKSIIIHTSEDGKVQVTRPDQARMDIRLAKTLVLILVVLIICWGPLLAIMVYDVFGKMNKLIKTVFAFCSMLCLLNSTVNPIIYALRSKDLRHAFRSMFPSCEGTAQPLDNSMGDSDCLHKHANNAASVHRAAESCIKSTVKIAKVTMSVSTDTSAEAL
T2 sequence (P10635 with tags, fused parts or gaps limits assumed): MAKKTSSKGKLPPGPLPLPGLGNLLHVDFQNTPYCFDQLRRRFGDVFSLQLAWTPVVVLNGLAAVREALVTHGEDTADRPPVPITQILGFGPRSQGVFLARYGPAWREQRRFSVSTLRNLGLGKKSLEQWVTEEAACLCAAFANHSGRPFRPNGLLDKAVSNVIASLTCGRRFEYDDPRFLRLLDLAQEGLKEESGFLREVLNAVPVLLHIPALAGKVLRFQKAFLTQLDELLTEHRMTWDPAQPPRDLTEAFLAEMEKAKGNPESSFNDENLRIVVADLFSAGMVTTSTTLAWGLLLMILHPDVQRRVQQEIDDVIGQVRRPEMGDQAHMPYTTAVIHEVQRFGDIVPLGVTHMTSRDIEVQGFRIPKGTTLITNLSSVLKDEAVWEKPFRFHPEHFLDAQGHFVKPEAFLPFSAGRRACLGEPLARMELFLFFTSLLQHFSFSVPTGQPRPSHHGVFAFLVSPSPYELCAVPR
Sequence of CYP3A4 (P08684 with tags, fused parts or gaps S18F limits assumed): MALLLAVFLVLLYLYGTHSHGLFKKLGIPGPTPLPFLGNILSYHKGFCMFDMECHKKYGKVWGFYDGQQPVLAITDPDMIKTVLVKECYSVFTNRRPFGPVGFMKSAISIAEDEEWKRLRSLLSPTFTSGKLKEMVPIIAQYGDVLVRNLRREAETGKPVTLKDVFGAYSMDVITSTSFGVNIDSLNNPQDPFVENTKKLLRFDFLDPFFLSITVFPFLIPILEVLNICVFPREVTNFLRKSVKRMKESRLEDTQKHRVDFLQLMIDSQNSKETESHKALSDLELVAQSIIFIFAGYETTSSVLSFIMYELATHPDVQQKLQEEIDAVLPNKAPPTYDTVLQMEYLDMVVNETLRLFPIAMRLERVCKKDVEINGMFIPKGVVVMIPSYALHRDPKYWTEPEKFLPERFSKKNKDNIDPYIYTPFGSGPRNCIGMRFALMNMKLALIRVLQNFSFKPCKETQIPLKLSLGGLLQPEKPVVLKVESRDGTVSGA

Molecule: CC(C)C[C@H]1C(=O)N2CCC[C@H]2[C@]2(O)O[C@](NC(=O)[C@@H]3C=C4c5cccc6[nH]c(Br)c(c56)C[C@H]4N(C)C3)(C(C)C)C(=O)N12 [Bromocriptine, reference compound]
- rate of NADPH oxidation in the presence of the compound (CYP3A4): 60.788±19.569 nmol/min/nmol

Molecule: CCCCCc1cc(O)c2c(c1)OC(C)(C)c1ccc(CO)cc1-2 [CBN-11-OH, cannabinol-11-hydroxy]
- inhibition of CB2 receptor (CB2 receptor): complete inhibition
- IL-10 levels (IL-10): concentration-dependent increase in IL-10 levels
- rate of metabolite formation from CBN (human liver microsomes): ≤ 3.4 × 10^4 pmol/min/nmol
- production of NO (NO; LPS-stimulated BV2, 5 μM): slightly lower production of NO
- change in NO levels compared to cells with only LPS treatment (NO): no detectable significant (ns) change
- Ca2+ response (%) (DRG neurons): 31.6 ± 2.8%
- DRG neuron activation (%) (DRG neurons): 5.4 ± 1.1%
- Response Time (DRG neurons): 22.8 ± 2.2 s
- [Ca2+]i responses, peak values (DRG neurons): 31.6 ± 2.8%
- percentage of DRG neurons activated (DRG neurons): 5.4 ± 1.1%
- time to peak response (DRG neurons): 22.8 ± 2.2 s
- IL-6 levels (IL-6; LPS-stimulated BV2, 5 μM): reduction in IL-6 levels
- inhibition of CB1 activation (CB1 receptor [1]): complete ablation of the BRET signal
- Arginase1 levels (Arginase 1): mixed results
- reduction of plasma level between 0.5 and 2 h ([2]; IP administration of CBN): 2 fold
- reduction of plasma level between 0.5 and 2 h ([2]; IV administration of CBN): 3 fold
- CBN-11-OH formation relative to CBN-1′-OH ([2]; IV): ~89 times
- CBN-11-OH formation relative to CBN-quinone ([2]; IV): ~55 times
- CBN-11-OH formation relative to CBN-1′-OH ([2]; i.p.): ~82 fold
- CBN-11-OH formation relative to CBN-quinone ([2]; i.p.): ~90 fold

Molecule: CCCCCC1=CC(=O)C2=C(OC(C)(C)c3ccc(C)cc32)C1=O [CBN-quinone, 6,6,9-Trimethyl-3-pentyl-1H-benzo[c]chromene-1,4(6H)-dione]
- inhibition of CB2 receptor (CB2 receptor): partial inhibition
- rate of metabolite formation from CBN (human liver microsomes): further down by approximately three times the value of CBN-1′–OH
- Vmax of metabolite formation from CBN (CYP2D6; CBN 5–80 μM): 5.6 pmol/min/nmol
- reduction of plasma level between 0.5 and 2 h ([2]; IV administration of CBN): 9 fold

Molecule: CCCC[C@H](O)c1cc(O)c2c(c1)OC(C)(C)c1ccc(C)cc1-2 [CBN-1′–OH, 3-(1-hydroxypentyl)-6,6,9-trimethyl-6H-benzo[c]chromen-1-ol]
- inhibition of CB2 receptor (CB2 receptor): inverse agonist effect
- IL-10 levels (IL-10): reversed
- rate of metabolite formation from CBN (human liver microsomes): 9–9.4 × 10^3 pmol/min/nmol
- change in NO levels compared to cells with only LPS treatment (NO): no detectable significant (ns) change
- IL-6 production (IL-6; LPS-stimulated BV2, concentration not stated): decrease in IL-6 production
- Arginase1 levels (Arginase 1): slight increase in Arginase1 levels
- formation of metabolite by CYP2D6 (CYP2D6): did not detect the formation
- agonist effect at CB1 receptor, Gαo activation (CB1 receptor [3]): partial agonist effect
- reduction of plasma level between 0.5 and 2 h ([2]; IV administration of CBN): 3 fold

B1: CYP2C9 (Homo sapiens) (protein)
chain: MDSLVVLVLCLSCLLLLSLWRQSSGRGKLPPGPTPLPVIGNILQIGIKDISKSLTNLSKVYGPVFTLYFGLKPIVVLHGYEAVKEALIDLGEEFSGRGIFPLAERANRGFGIVFSNGKKWKEIRRFSLMTLRNFGMGKRSIEDRVQEEARCLVEELRKTKASPCDPTFILGCAPCNVICSIIFHKRFDYKDQQFLNLMEKLNENIKILSSPWIQICNNFSPIIDYFPGTHNKLLKNVAFMKSYILEKVKEHQESMDMNNPQDFIDCFLMKMEKEKHNQPSEFTIESLENTAVDLFGAGTETTSTTLRYALLLLLKHPEVTAKVQEEIERVIGRNRSPCMQDRSHMPYTDAVVHEVQRYIDLLPTSLPHAVTCDIKFRNYLIPKGTTILISLTSVLHDNKEFPNPEMFDPHHFLDEGGNFKKSKYFMPFSAGKRICVGEALAGMELFLFLTSILQNFNLKSLVDPKNLDTTPVVNGFASVPPFYQLCFIPV
- Km (not read [4]): 2.5 µM
- kcat (not read [4]): 4.4 pmol/min/nmol
- Km (not read [5]): 2.3 µM
- kcat (not read [5]): 12.1 pmol/min/nmol
